Experiments:
human NT2 cells = test: Trypan blue dye exclusion assay, NT2 cells; format: cell-based; settings: 25 μM steroid, 72 hours
Protocol: Rat PC12 cells were cultured as previously described. Yao et al., Brain Res. 889, 181-190 (2001). Human NT2 precursor (Ntera2/D1 teratocarcinoma) cells were obtained from Stratagene (La Jolla, Calif.) and cultured following the instructions of the supplier. Differentiated human NT2 neurons (NT2N) were obtained after treatment of the NT2 precursor cells with retinoic acid. Andrews, Dev. […] Aβ was dissolved in media and used either in the aggregated (left overnight at 4° C.) or soluble (containing oligomers such as dimers and tetramers) forms examined by electrophoresis as previously described. Yao et al., Brain Res. (2001). […] Id. Cell viability was measured using the trypan blue exclusion method as previously described. Id. In brief, for these studies, cells were treated for 72 hours with steroids in the presence or absence of increasing concentrations of Aβ. At the end of the incubation, the cells were washed three times with PBS and incubated for 15 minutes with 0.1% trypan blue stain solution at room temperature. After washing three times with PBS, 0.1 N NaOH was added to the cells and trypan blue staining was quantified using the Victor quantitative detection spectrophotometer (EGG-Wallac, Gaithersburg, Md.) at 450 nm. Cell protein levels were determined in the same samples by the method of Bradford (Bradford, Anal. Biochem., 72, 248-254 (1976)), where coomassie blue staining is detected at 590 nm.
The results obtained from using MTT assay were further confirmed with the trypan blue dye exclusion assay. […] Levels of viability were measured using the trypan blue assay as described under Materials and Methods. Results are expressed as fold trypan blue stained cells per total cell protein over control untreated cells. Results shown are means±SD (n=6-12).

[1] = system: PC12 cells (rat pheochromocytoma neurons); test: MTT cytotoxicity assay, Aβ-induced neurotoxicity in PC12 cells (Example II); format: cell-based; settings: MTT; compounds at 30 and 50 μM; 72 hours
Protocol: (§1) PC12 cells (rat pheochromocytoma neurons) from ATCC (Manassas, Va.) were cultured at 37° C. and 5% CO2 in RPMI 1640 medium devoid of glutamine and supplemented with 10% fetal bovine serum and 5% horse serum. Yao Z, Drieu K and Papadopoulos V., The Gingko biloba extract EGb 761 rescues PC12 neuronal cells from β-amyloid-induced cell death by inhibiting the formation of (3-amyloid-derived diffusible neurotoxic ligands, Brain Res, 889, 181-190 (2001). Cells were seeded in 96-well plates (8×10^4 cells/well). After an overnight period of incubation, increasing concentrations of aggregated Aβ (0.1, 1 and 10 μM) were added to the cells in the presence or absence of the indicated concentrations of the SP compounds to be tested. After 72-hours incubation time various parameters, markers of cell viability, were determined. Mouse MA-10 tumor Leydig cells were maintained at 37° C. in DMEM/Ham's F12 (Biofluids, Rockville, Md.) medium supplemented with 5% heat-inactivated fetal calf serum and 2.5% horse serum in 5% CO2. Cells were plated on 96-well plates at the density of 2.5×10^4 cells/well for overnight. The cells were stimulated with the indicated concentrations of the various SP compounds in 0.2 ml/well serum-free medium for 2 hours. The culture medium was collected and tested for progesterone production by radioimmunoassay.
The cellular toxicity of Aβ was assessed using the 3-(4,5-dimethylthiazol-2-yl)-2,5-diphenyl tetrazolium bromide (MTT) assay (Trevigen, Gaithersburg, Md.). Briefly, 10 μl of the MTT solution were added to the cells cultured in 100 μl medium. After an incubation period of 4 hours, 100 μl of detergent were added and cells were incubated overnight at 37° C. Formazan blue formation was quantified at 600 nm and 690 nm using the Victor quantitative detection spectrophotometer (EGG-Wallac, Gaithersburg, Md.) and the results expressed as (DO600-DO690). […] Liu Y and Schubert D, Steroid hormones block amyloid fibril-induced 3-(4,5-dimethylthiazol-2-yl)-2,5-diphenyltetrazolium bromide (MTT) formazan exocytosis: relationship to neurotoxicity, J. Neurochem., 19, 1639-1662 (1998). For that reason, additional cytotoxicity and cell viability assays were used.
Yao et al., J. Neurochem., 83, 1110-1119 (2002); and Yao et al., The Gingko biloba extract EGb 761 rescues PC12 neuronal cells from β-amyloid-induced cell death by inhibiting the formation of β-amyloid-derived diffusible neurotoxic ligands, Brain Res., 889, 181-190 (2001). To stay close to the concentrations of Aβ present in AD brain, 0.1-10 μM concentrations of Aβ were used. The compounds tested for their neuroprotective properties were examined at 30 and 50 μM concentrations (FIGS. 9-15).

PC12 cells = test: Membrane potential (CytoLite luminescence) in Aβ-treated PC12 cells; format: cell-based, rat
Protocol: as §1
Cells viability was also assessed using the luminescence-based kit CytoLite™ (Packard BioScience Co.) according to the recommendations of the manufacturer. Briefly, cells were cultured and treated in 96-well plates and after 72-hours incubation time, 25 μl of Activator solution was added to the cells followed by 150 μl of Amplifier solution. Luminescence was measured on a TopCount NXT™ counter (Packard BioSciences Co.) following a 5 minute precount delay.

NT2 cells = test: Expression of GFRα receptor proteins in NT2 cells (immunoblot); format: cell-based, human; settings: 25 μM; 6 days
Protocol: Cells were fixed with newly prepared 3.7% formaldehyde for 15 minutes and blocked by blocking reagent (Zymed Laboratories, San Francisco, Calif., USA). Inuunostaining was performed using rabbit anti-NF200, anti-NF145 and anti-NF70 (all at 1:200), and goat anti-GFRα1, anti-GFRα2 and anti-GFRα3 (all at 1:100); Santa Cruz Biotechnology (Santa Cruz, Calif., USA). All antibodies were used at 200 μg/ml. After overnight incubation at 4° C., the immunoreactivity was detected using horseradish peroxidase-conjugated anti-rabbit or anti-mouse IgG for 1 hour at room temperature and visualized using AEC.
Cells were then washed with phosphate-buffered saline (PBS) and lysed with loading buffer. Proteins were resolved by sodium dodecyl sulfate polyacrylamide gel electrophoresis (SDS-PAGE) on 4-20% gradient acrylamide-bis-acrylamide gel at 125 V for 2 hours and electrotransferred onto nitrocellulose membranes. After blocking with 5% nonfat milk, the membranes were subjected to immunoblot analysis by incubation overnight with rabbit anti-NF200, anti-NF145 and anti-NF70 (all at 1:4000) (Chemicon International, Temecula, Calif., USA) and goat anti-GFRα1, anti-GFRα2 and anti-GFRα3 (all at 1:500) (200 μg/ml; Santa Cruz Biotechnology, Inc., Santa Cruz, Calif., USA), goat anti-rabbit or rabbit anti-goat IgG-horseradish peroxidase being used as the secondary antibody (1:5000) (Zymed Laboratories, San Francisco, Calif., USA). Protein bands were visualized using ECL reagents (Amersham Pharmacia Biotech, Piscataway, N.J., USA). Image-densitometric analyses of the immunoreactive protein bands were performed using OptiQuant-image analysis software (Packard BioScience, Meriden, Conn., USA). Glyceraldehyde-3-phosphate dehydrogenase (GAPPH) served as an internal standard.

CC(C)CC[C@@H](O)[C@@H](C)[C@H]1CC[C@H]2[C@@H]3CC=C4C[C@@H](O)CC[C@]4(C)[C@H]3CC[C@]12C [SP222, 22R-hydroxycholesterol]
rescue from Aβ1-42-induced cell death (human NT2 cells): rescued | rescue from Aβ25-35-induced cell death (human NT2 cells): Neither 22R-hydroxycholesterol nor DHEA could rescue | neuroprotection against 0.1 μM Aβ-induced neurotoxicity [1]: protects | neuroprotection against 1 μM Aβ-induced neurotoxicity [1]: protects | neuroprotection against 10 μM Aβ-induced neurotoxicity [1]: limited neuroprotection | protection against 0.1 μM Aβ, membrane potential luminescence (PC12 cells; 0.1 μM Aβ): protected | protection against the two highest concentrations of Aβ, membrane potential luminescence (PC12 cells; 1.0 and 10.0 μM Aβ): failed to do so | decrease of GFRα3 protein expression (NT2 cells): about 16% | expression of GFRα1 (NT2 cells): no significant effect | increase of GFRα2 protein expression over the control level (NT2 cells): 45%
